{"source": "patent US20120093947A1", "about": "“METHOD OF TREATING REACTIVE AIRWAY DISEASE” (UNITED STATES DEPARTMENT OF VETERANS AFFAIRS, priority 2009, published 2012)", "key": {"MPO": {"target": "MPO (Homo sapiens, UniProt P05164)", "sequence (P05164 279-745 limits assumed)": "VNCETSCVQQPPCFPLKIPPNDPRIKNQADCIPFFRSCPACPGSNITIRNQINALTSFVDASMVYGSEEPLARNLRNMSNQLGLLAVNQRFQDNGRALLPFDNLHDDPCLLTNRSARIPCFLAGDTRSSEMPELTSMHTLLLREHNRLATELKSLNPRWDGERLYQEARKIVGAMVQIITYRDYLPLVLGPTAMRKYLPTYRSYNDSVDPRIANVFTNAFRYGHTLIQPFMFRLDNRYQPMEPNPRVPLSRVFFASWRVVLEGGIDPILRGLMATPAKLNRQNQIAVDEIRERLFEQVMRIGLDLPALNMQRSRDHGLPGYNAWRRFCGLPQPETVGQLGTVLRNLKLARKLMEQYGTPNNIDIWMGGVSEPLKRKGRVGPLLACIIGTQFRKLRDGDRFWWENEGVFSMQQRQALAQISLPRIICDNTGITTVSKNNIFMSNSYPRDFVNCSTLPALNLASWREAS", "sequence (P05164 165-273 limits assumed)": "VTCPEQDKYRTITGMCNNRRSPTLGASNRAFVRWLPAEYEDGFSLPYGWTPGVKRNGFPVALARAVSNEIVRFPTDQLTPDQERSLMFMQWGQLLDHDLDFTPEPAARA", "test": "Oxidation of β2-agonists by MPO/H2O2, spectrophotometric ΔA315", "assay_type": "biochemical", "parameters": "Myeloperoxidase (MPO) from human leucocytes (lyophilized powder); purchased Axxora, LLC (San Diego, Calif.); host or cells: human leucocytes (natural source)", "conditions": "200 mU/mL MPO", "protocol": "(§1) Spectrophotometric Measurements. Spectra are measured using an Agilent diode array spectrophotometer model 8453 (Agilent Technologies, Inc., Santa Clara, Calif.). Oxidation of β2-agonists is studied by measuring absorption spectra at designated time points following reaction starts. Samples are prepared in 50 mM acetate buffer (pH 5.0), 50 and 100 mM phosphate buffers (pH 7.0 and 8.0) and 100 mM Tris/HCl (pH 9.19). All buffers contain DTPA (100 and 200 μM) and measurements are performed at an ambient temperature of 20° C. The reaction is started by the addition of a small aliquot of H2O2 (2, 5 or 10 μL), or glucose oxidase (1 μL), if glucose/glucose oxidase was used to generate H2O2, to a sample containing a studied compound, peroxidase and, if required, an inhibiting co-factor. Time course measurements are carried out following changes in absorbance at 315 nm in 15 second intervals versus absorbance at 800 nm, where none of the compounds absorb. The 315 nm wavelength is chosen because β2-agonists' oxidation products absorb intensely near 315 nm, and because it is close to the absorption maximum of tyrosine dimers.\nThe concentration of AscH^− in airway fluid was estimated to be near 100 μM (Id.), so we use concentrations within this physiological range. […] AscH^− affects oxidation of salbutamol and fenoterol similarly, causing delay in the net oxidation of both drugs. A315 increases after a lag period, the duration of which depends on AscH^− concentration. Net oxidation of the drugs occurs only when AscH^− is consumed. […] This is understandable given that the concentration of H2O2 was only 50 μM and the peroxide was used to oxidize both the drugs and AscH^−. […] The proposed mechanisms of inhibition are reactions A and B, shown below, which reveal that recovery of the drug occurs at the expense of AscH^−, which is oxidized to the ascorbate radical (A^•−).\n[…]. The extent of oxidation is expressed as ΔA315±SE versus control (in %) during 22 minutes of reaction at 20° C. Values are the mean of at least duplicate determinations."}, "LPO [1]": {"target": "T1, LPO (Bos taurus, UniProt P80025)", "T1 construct": "Lactoperoxidase (LPO) from bovine milk (EC 1.11.1.7); purchased Sigma-Aldrich Co. (St. Louis, Mo.); host or cells: bovine milk (natural source)", "test": "Oxidation of β2-agonists by LPO/H2O2 (glucose/glucose oxidase), spectrophotometric ΔA315", "assay_type": "biochemical, bovine", "conditions": "1 mM glucose/0.2 μg/mL glucose oxidase, pH 7.0, 30 min, % of control; for Amount of metabolite formed ΔA315 (%) Fenoterol: 50 μM fenoterol, 158 nM LPO; for Amount of metabolite formed ΔA315 (%) Salbutamol: 100 μM salbutamol, 216 nM LPO", "protocol": "as §1\nIn certain experiments, oxidation of β2-agonists by peroxidases is carried out using H2O2 generated by the reaction of glucose (1 mM) with glucose oxidase (0.2 μg/mL). The rate of H2O2 generation in these systems was estimated based on the rate of oxidation of ABTS (1 mM) to the green ABTS radical cation (ABTS^•+) by HRP, at increasing concentrations of the enzyme. Concentrations of glucose and glucose oxidase are the same as those used in experiments with β2-agonists. The plot of the rate of ABTS^•+ oxidation at 420 nm (determined from the linear portion of kinetic runs) versus [HRP] is a curve, which plateaus above a certain threshold value [HRP]. The mean value of the rate from the plateau region (dA420/dt=ε420×d[ABTS^•+]/dt) is taken as the rate at which all H2O2 produced glucose/glucose was immediately used up by the enzyme to oxidize ABTS. Calculations are performed using […] (ABTS^•+ of 3.6×10^4 M^−1 cm^−1) (Childs et al. (1975) Biochem. […].\nH2O2 is generated by 1 mM glucose and 0.2 μg/mL glucose oxidase. Oxidation of 50 μM fenoterol and 100 μM salbutamol is carried out in 0.1 M potassium phosphate buffer (pH 7.0) containing 0.1 mM DTPA in the presence of LPO (158 nM LPO for fenoterol and 216 nM for salbutamol). The extent of inhibition is determined by measuring ΔA315 during 30 minutes of reaction and is expressed as % of control (mean±SE from at least two determinations)."}, "LPO [2]": {"target": "T1, LPO", "test": "Nitration of salbutamol by LPO/H2O2/NO2−, A410", "assay_type": "biochemical, bovine", "protocol": "Spectrophotometric Measurements. Spectra are measured using an Agilent diode array spectrophotometer model 8453 (Agilent Technologies, Inc., Santa Clara, Calif.). Nitration of salbutamol is studied by measuring absorption spectra at designated time points following the start of the reaction. Samples are prepared in 100 mM phosphate buffers (pH 7.0). All buffers contained DTPA (100 μM) or are pretreated with Chelex-100 before use, and measurements are performed at ambient temperature of 20° C. Typically, the reaction is started by the addition of a small aliquot of H2O2 or the desired peroxidase. Time course measurements are carried out following changes in absorbance at 410 nm in 30 second intervals versus absorbance at 800 nm, where none of the compounds absorb.\nAscorbate (AscH^−) is an effective natural antioxidant protecting airways from oxidative injury. Cross et al., (1994) Environ. Health Perspect. 102 (suppl. 10):185-191. Its concentration in the respiratory tract lining fluid is estimated to be near 100 μM (Id.). We examine the effect of AscH^− on nitration of 100 μM salbutamol by 67 nM LPO, 4 mM H2O2, and 3.5 mM of NaNO2 by measuring absorption at 410 nm. […] The duration of the lag period depends on AscH^− concentration. […] See, e.g., Reszka et al. (1999) Free Radic. Biol. & Med. 26:669-678.\nAs noted earlier, methimazole is an antithyroid drug, an effective inhibitor of LPO activity. 100 μM of salbutamol is reacted with 73 nM LPO, 3.5 mM NaNO2, and 4 mM H2O2 at pH buffer 7.0 in the presence of 0, 27, 55, and 109 μM methimazole (shown in FIG. 9, section A, traces a-d, respectively). Traces c and d also indicate by arrow when additional LPO is added to the system. […] In contrast to effects exerted by AscH^− or SCN^−, methimazole-dependent inhibition is permanent and is probably due to inactivation of the enzyme, since a second dose of LPO reactivates the process (FIG. 9, section A, trace c).\nDapsone, an anti-inflammatory and anti-leprotic agent, is a potent inhibitor of LPO and MPO. See, e.g., Kettle et al. (1991) Biochem. Pharmacol. 41(10):1485-1492; Bozeman et al. (1992) Biochem. Pharmacol. 44(2):553-563. 97 μM of salbutamol is reacted with 65 nM LPO, 3.4 mM NaNO2, and 4 mM H2O2 at pH buffer 7.0 in the presence of 0, 2.5, 5, 10, 50, and 100 μM dapsone (shown in FIG. 10, traces a-f, respectively). The arrows in traces d and e of FIG. 10 indicate where additional LPO is added to the system. […] Dapsone at 50 μM inhibited nitration by approximately 86%. Given the high concentrations of NaNO2 and H2O2 used in this system, dapsone appears to be a potent blocker of nitration.\nThe extent of nitration is expressed as a change in ΔA410 versus control (dapsone omitted) taken as 100% after 10, 30, and 60 minute reactions for LPO, MPO, and EPO nitrating systems, respectively. Results equal the means±SE of at least two measurements. In the LPO system, 100 μM of salbutamol, 3.4 mM of NaNO2, 4 mM of H2O2, and 65 nM of LPO is used. In the MPO system, 50 μM of salbutamol, 5.0 mM of NaNO2, 5 mM of H2O2, and 0.2 U/mL of MPO is used. In the EPO system, 50 μM of salbutamol, 5 mM of NaNO2, 2 mM of H2O2, and 0.075 U/mL of EPO is used. All reactions were carried out in pH 7.0 phosphate buffer containing DMSO (5% v/v). The term “nitrophenols” includes nitrosalbutamol (N-Sal) and salbutamol-derived nitrophenol (N—ArOH)."}, "[3]": {"conditions": "inhibitor 1 mM, listed as azide"}, "[4]": {"conditions": "inhibitor 0.1 mM, listed as L-methionine"}, "[5]": {"conditions": "inhibitor 0.1 mM, listed as thiocyanate"}}}
{"molecule": "[N-]=[N+]=[N-].[Na+]", "note": "[NaN3]", "values": [{"measurement": "ΔA315 (%) Fenoterol, extent of oxidation versus control", "setting": "MPO; 1 mM fenoterol, 50 μM H2O2, pH 7.0, 22 min, 20° C., co-factor 1 mM", "value": "17.9 ± 4.2", "unit": "%"}, {"measurement": "ΔA315 (%) Salbutamol, extent of oxidation versus control", "setting": "MPO; 1 mM salbutamol, 50 μM H2O2, pH 7.0, 22 min, 20° C., co-factor 1 mM", "value": "6.6 ± 1.3", "unit": "%"}, {"measurement": "Amount of metabolite formed ΔA315 (%) Fenoterol", "setting": "LPO [1]; inhibitor 1 mM", "value": "45.5 ± 3.9", "unit": "%"}, {"measurement": "Amount of metabolite formed ΔA315 (%) Fenoterol", "setting": "LPO [1]; [3]", "value": "strongly inhibited"}, {"measurement": "Amount of metabolite formed ΔA315 (%) Salbutamol", "setting": "LPO [1]; inhibitor 1 mM", "value": "17.4 ± 7.1", "unit": "%"}, {"measurement": "Amount of metabolite formed ΔA315 (%) Salbutamol", "setting": "LPO [1]; [3]", "value": "strongly inhibited"}]}
{"molecule": "CSCC[C@H](N)C(=O)O", "note": "[Methionine, L-methionine]", "values": [{"measurement": "Amount of metabolite formed ΔA315 (%) Fenoterol", "setting": "LPO [1]; inhibitor 0.1 mM", "value": "103.7 ± 2.0", "unit": "%"}, {"measurement": "Amount of metabolite formed ΔA315 (%) Fenoterol", "setting": "LPO [1]; [4]", "value": "inactive"}, {"measurement": "Amount of metabolite formed ΔA315 (%) Fenoterol", "setting": "LPO [1]; inhibitor 2 mM", "value": "95.0 ± 3.5", "unit": "%"}, {"measurement": "Amount of metabolite formed ΔA315 (%) Salbutamol", "setting": "LPO [1]; inhibitor 0.1 mM", "value": "105.5 ± 16.2", "unit": "%"}, {"measurement": "Amount of metabolite formed ΔA315 (%) Salbutamol", "setting": "LPO [1]; [4]", "value": "inactive"}]}
{"molecule": "N[C@@H](CCC(=O)N[C@@H](CS)C(=O)NCC(=O)O)C(=O)O", "note": "[GSH, glutathione]", "values": [{"measurement": "ΔA315 (%) Fenoterol, extent of oxidation versus control", "setting": "MPO; 100 μM fenoterol, 50 μM H2O2, pH 7.0, 30 min, co-factor 0.1 mM", "value": "43.3 ± 14.5", "unit": "%"}, {"measurement": "ΔA315 (%) Salbutamol, extent of oxidation versus control", "setting": "MPO; 100 μM salbutamol, 50 μM H2O2, pH 7.0, 30 min, co-factor 0.1 mM", "value": "62.0 ± 17.3", "unit": "%"}]}
{"molecule": "N#C[S-].[Na+]", "note": "[NaSCN]", "values": [{"measurement": "Nitration of salbutamol by LPO/H2O2/NO2− (A410 versus time)", "setting": "LPO [2]; 50 μM NaSCN", "value": "completely prevented"}, {"measurement": "Nitration of salbutamol by LPO/H2O2/NO2− (A410 versus time)", "setting": "LPO [2]; [NaSCN] <50 μM (10, 25 μM)", "value": "only transiently"}, {"measurement": "Amount of metabolite formed ΔA315 (%) Fenoterol", "setting": "LPO [1]; inhibitor 0.1 mM", "value": "22.8 ± 3.8", "unit": "%"}, {"measurement": "Amount of metabolite formed ΔA315 (%) Fenoterol", "setting": "LPO [1]; [5]", "value": "markedly inhibit"}, {"measurement": "Amount of metabolite formed ΔA315 (%) Salbutamol", "setting": "LPO [1]; inhibitor 0.1 mM", "value": "5.5 ± 7.3", "unit": "%"}, {"measurement": "Amount of metabolite formed ΔA315 (%) Salbutamol", "setting": "LPO [1]; [5]", "value": "markedly inhibit"}]}
{"molecule": "Catalase: catalase from bovine liver (EC 1.11.1.6; 2,350 U/mg) (protein, UniProt P00432 2-527, looked up) Catalase: ADNRDPASDQMKHWKEQRAAQKPDVLTTGGGNPVGDKLNSLTVGPRGPLLVQDVVFTDEMAHFDRERIPERVVHAKGAGAFGYFEVTHDITRYSKAKVFEHIGKRTPIAVRFSTVAGESGSADTVRDPRGFAVKFYTEDGNWDLVGNNTPIFFIRDALLFPSFIHSQKRNPQTHLKDPDMVWDFWSLRPESLHQVSFLFSDRGIPDGHRHMNGYGSHTFKLVNANGEAVYCKFHYKTDQGIKNLSVEDAARLAHEDPDYGLRDLFNAIATGNYPSWTLYIQVMTFSEAEIFPFNPFDLTKVWPHGDYPLIPVGKLVLNRNPVNYFAEVEQLAFDPSNMPPGIEPSPDKMLQGRLFAYPDTHRHRLGPNYLQIPVNCPYRARVANYQRDGPMCMMDNQGGAPNYYPNSFSAPEHQPSALEHRTHFSGDVQRFNSANDDNVTQVRTFYLKVLNEEQRKRLCENIAGHLKDAQLFIQKKAVKNFSDVHPEYGSRIQALLDKYNEEKPKNAVHTYVQHGSHLSAREKANL", "values": [{"measurement": "ΔA315 (%) Fenoterol, extent of oxidation versus control", "setting": "MPO; 1 mM fenoterol, 50 μM H2O2, pH 7.0, 22 min, 20° C., co-factor 235 U/mL", "value": 0.0, "unit": "%"}, {"measurement": "ΔA315 (%) Salbutamol, extent of oxidation versus control", "setting": "MPO; 1 mM salbutamol, 50 μM H2O2, pH 7.0, 22 min, 20° C., co-factor 235 U/mL", "value": 0.0, "unit": "%"}]}
